The values that follow come from patent US9242984B2, “Pyrazolyl derivatives as Syk inhibitors” (Merck Sharp & Dohme Corp., priority 2012, dated 2016).

Some results are limits rather than exact numbers.

The target in the first assay is T1, recombinant human Syk (GST-hSyk fusion protein) (Homo sapiens, UniProt P43405).
T1 construct: purchased Carna Biosciences 08-176
Put plainly: Homogeneous Time-Resolved Fluorescence (HTRF) assay for the recombinant human Syk enzyme. The assay is classed as biochemical. The settings on record: 10-dose titration, 25 μM ATP; read-out: rhSYK IC50. The procedure, abridged:
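IC50 came from a four-parameter fit over ten doses, 10 μM to 0.508 nM, with HTRF read-out (Eu-anti-pTyr antibody, SA-APC, EDTA stop, 30 min). The enzyme, 5 pM GST-hSyk, met compound for 10 min, then phosphorylated 250 nM biotin-peptide with 25 μM ATP and 5 mM Mg for 45 min at room temperature, pH 7.5.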
For orientation: In TR-FRET formats the signal depends on donor and acceptor labels being close together.
For the molecule `COC(=O)[C@@H](N)Cn1cc(-c2cc(C)cc(Nc3nccc(C(F)(F)F)n3)c2)cn1` [Example 4.1, methyl 3-[4-(3-methyl-5-{[4-(trifluoromethyl)pyrimidin-2-yl]amino}phenyl)-1H-pyrazol-1-yl]-L-alaninate], the IC50 was determined as 0.0274 µM.

Staying with this assay, now noted: IC50 class; 10-dose titration, 25 μM ATP; read-out: rhSYK Activity.
On to `CCC(C)(O)Cn1cc(-c2cc(C)cc(Nc3nccc(C(F)F)n3)c2)cn1` (centres unmarked) [Example 3.113, 1-[4-(3-{[4-(difluoromethyl)pyrimidin-2-yl]amino}-5-methylphenyl)-1H-pyrazol-1-yl]-2-methylbutan-2-ol], for which the IC50 was at most 0.1 µM.
With `CCC(C)(O)Cn1cc(-c2cc(C)cc(Nc3nccc(C(F)F)n3)c2)cn1` (centres unmarked) [Example 3.114, 1-[4-(3-{[4-(difluoromethyl)pyrimidin-2-yl]amino}-5-methylphenyl)-1H-pyrazol-1-yl]-2-methylbutan-2-ol], the IC50 is at most 0.1 µM.
Still for that read-out and setting: then `Cc1cc(Nc2ncccn2)cc(-c2cnn(CC3CNC(=O)O3)c2)c1` (centres unmarked) [Example 3.115, 5-({4-[3-methyl-5-(pyrimidin-2-ylamino)phenyl]-1H-pyrazol-1-yl}methyl)-1,3-oxazolidin-2-one], with at most 0.1 µM; and `Cc1cc(Nc2ncccn2)cc(-c2cnn(CC3CNC(=O)O3)c2)c1` (centres unmarked) [Example 3.116, 5-({4-[3-methyl-5-(pyrimidin-2-ylamino)phenyl]-1H-pyrazol-1-yl}methyl)-1,3-oxazolidin-2-one], with at most 0.1 µM; and `Cc1cc(Nc2nccc(C(F)(F)F)n2)cc(-c2cnn(CC3(C)CNC(=O)O3)c2)c1` (centres unmarked) [Example 3.117, 5-methyl-5-{[4-(3-methyl-5-{[4-(trifluoromethyl)pyrimidin-2-yl]amino}phenyl)-1H-pyrazol-1-yl]methyl}-1,3-oxazolidin-2-one], with at most 0.1 µM.
The same measure, in the same setting: then `Cc1cc(Nc2nccc(C(F)(F)F)n2)cc(-c2cnn(CC3(C)CNC(=O)O3)c2)c1` (centres unmarked) [Example 3.118, 5-methyl-5-{[4-(3-methyl-5-{[4-(trifluoromethyl)pyrimidin-2-yl]amino}phenyl)-1H-pyrazol-1-yl]methyl}-1,3-oxazolidin-2-one], with at most 0.1 µM; and `Cc1cc(Nc2nccc(C(F)(F)F)n2)cc(-c2cnn(CC3OC(=O)NC3C)c2)c1` (centres unmarked) [Example 3.119, 4-methyl-5-{[4-(3-methyl-5-{[4-(trifluoromethyl)pyrimidin-2-yl]amino}phenyl)-1H-pyrazol-1-yl]methyl}-1,3-oxazolidin-2-one], with at most 0.1 µM; and `Cc1cc(Nc2nccc(C(F)(F)F)n2)cc(-c2cnn(CC3OC(=O)NC3C)c2)c1` (centres unmarked) [Example 3.120, 4-methyl-5-{[4-(3-methyl-5-{[4-(trifluoromethyl)pyrimidin-2-yl]amino}phenyl)-1H-pyrazol-1-yl]methyl}-1,3-oxazolidin-2-one], with at most 0.1 µM.
The same measure, in the same setting: for `Cc1cc(Nc2nccc(C)n2)cc(-c2cnn(CC3(C)CNC(=O)O3)c2)c1` (centres unmarked) [Example 3.121, 5-methyl-5-[(4-{3-methyl-5-[(4-methylpyrimidin-2-yl)amino]phenyl}-1H-pyrazol-1-yl)methyl]-1,3-oxazolidin-2-one] the value was at most 0.1 µM.
For `Cc1cc(Nc2nccc(C)n2)cc(-c2cnn(CC3(C)CNC(=O)O3)c2)c1` (centres unmarked) [Example 3.122, 5-methyl-5-[(4-{3-methyl-5-[(4-methylpyrimidin-2-yl)amino]phenyl}-1H-pyrazol-1-yl)methyl]-1,3-oxazolidin-2-one], the IC50 is at most 0.1 µM.
Same read-out and setting: then `Cc1cc(Nc2nccc(C(F)F)n2)cc(-c2cnn(CC3(C)CNC(=O)O3)c2)c1` (centres unmarked) [Example 3.123, 5-{[4-(3-{[4-(difluoromethyl)pyrimidin-2-yl]amino}-5-methylphenyl)-1H-pyrazol-1-yl]methyl}-5-methyl-1,3-oxazolidin-2-one], with at most 0.1 µM; and `Cc1cc(Nc2nccc(C(F)F)n2)cc(-c2cnn(CC3(C)CNC(=O)O3)c2)c1` (centres unmarked) [Example 3.124, 5-{[4-(3-{[4-(difluoromethyl)pyrimidin-2-yl]amino}-5-methylphenyl)-1H-pyrazol-1-yl]methyl}-5-methyl-1,3-oxazolidin-2-one], with at most 0.1 µM; and `Cc1cc(Nc2nccc(C(C)(F)F)n2)cc(-c2cnn(CC3CNC(=O)O3)c2)c1` (centres unmarked) [Example 3.125, 5-{[4-(3-{[4-(1,1-difluoroethyl)pyrimidin-2-yl]amino}-5-methylphenyl)-1H-pyrazol-1-yl]methyl}-1,3-oxazolidin-2-one], with at most 0.1 µM.
Still for that read-out and setting: then `Cc1cc(Nc2nccc(C(C)(F)F)n2)cc(-c2cnn(CC3CNC(=O)O3)c2)c1` (centres unmarked) [Example 3.126, 5-{[4-(3-{[4-(1,1-difluoroethyl)pyrimidin-2-yl]amino}-5-methylphenyl)-1H-pyrazol-1-yl]methyl}-1,3-oxazolidin-2-one], with at most 0.1 µM.
Regarding `Cc1cc(Nc2nccc(C(F)(F)F)n2)cc(-c2cnn(CC3NC(=O)OC3C)c2)c1` (centres unmarked) [Example 3.127, 5-methyl-4-{[4-(3-methyl-5-{[4-(trifluoromethyl)pyrimidin-2-yl]amino}phenyl)-1H-pyrazol-1-yl]methyl}-1,3-oxazolidin-2-one], the IC50 is at most 0.1 µM.
Same read-out and setting: then `Cc1cc(Nc2nccc(C(F)(F)F)n2)cc(-c2cnn(CC3NC(=O)OC3C)c2)c1` (centres unmarked) [Example 3.128, 5-methyl-4-{[4-(3-methyl-5-{[4-(trifluoromethyl)pyrimidin-2-yl]amino}phenyl)-1H-pyrazol-1-yl]methyl}-1,3-oxazolidin-2-one], with at most 0.1 µM; and `Cc1cc(Nc2nccc(C(F)(F)F)n2)cc(-c2cnn(CC3NC(=O)OC3C)c2)c1` (centres unmarked) [Example 3.129, 5-methyl-4-{[4-(3-methyl-5-{[4-(trifluoromethyl)pyrimidin-2-yl]amino}phenyl)-1H-pyrazol-1-yl]methyl}-1,3-oxazolidin-2-one], with at most 0.1 µM.
For the molecule `COC(=O)[C@@H](N)Cn1cc(-c2cc(C)cc(Nc3nccc(C(F)(F)F)n3)c2)cn1` [Example 4.1, methyl 3-[4-(3-methyl-5-{[4-(trifluoromethyl)pyrimidin-2-yl]amino}phenyl)-1H-pyrazol-1-yl]-L-alaninate], the IC50 was at most 0.1 µM.
Still for that read-out and setting: then `COC(=O)[C@@H](O)Cn1cc(-c2cc(C)cc(Nc3nccc(C(F)(F)F)n3)c2)cn1` [Example 5.2, methyl (2S)-2-hydroxy-3-[4-(3-methyl-5-{[4-(trifluoromethyl)-pyrimidin-2-yl]amino}phenyl)-1H-pyrazol-1-yl]propanoate], with at most 0.1 µM.
The same measure, in the same setting: then `COC(=O)[C@H](O)Cn1cc(-c2cc(C)cc(Nc3nccc(C(F)(F)F)n3)c2)cn1` [Example 5.3, methyl (2R)-2-hydroxy-3-[4-(3-methyl-5-{[4-(trifluoro-methyl)pyrimidin-2-yl]amino}phenyl)-1H-pyrazol-1-yl]propanoate], with at most 0.1 µM; and `Cc1cc(Nc2nccc(C(F)(F)F)n2)cc(-c2cnn(C[C@]3(O)CC[C@@H](C(=O)O)CC3)c2)c1` [Example 5.5, cis-4-hydroxy-4-{[4-(3-methyl-5-{[4-(trifluoro-methyl)pyrimidin-2-yl]amino}-phenyl)-1H-pyrazol-1-yl]methyl}-cyclo-hexanecarboxylic acid], with at most 0.1 µM.
In the case of `Cc1cc(Nc2nccc(C(F)(F)F)n2)cc(-c2cnn(CC(O)COC(C)C)c2)c1` (centres unmarked) [Example 5.7, 1-(1-methylethoxy)-3-[4-(3-methyl-5-{[4-(trifluoro-methyl)pyrimidin-2-yl]amino}-phenyl)-1H-pyrazol-1-yl]propan-2-ol], the IC50 is at most 0.1 µM.
Consider `Cc1cc(Nc2nccc(C(F)(F)F)n2)cc(-c2cnn(CC(O)COc3ccccc3)c2)c1` (centres unmarked) [Example 5.8, 1-[4-(3-methyl-5-{[4-(trifluoro-methyl)pyrimidin-2-yl]amino}-phenyl)-1H-pyrazol-1-yl]-3-phenoxypropan-2-ol], for which the IC50 fell in the range of 0.1 to 1 µM.
For the molecule `COc1ccc(OCC(O)Cn2cc(-c3cc(C)cc(Nc4nccc(C(F)(F)F)n4)c3)cn2)cc1` (centres unmarked) [Example 5.11, 1-(4-methoxy-phenoxy)-3-[4-(3-methyl-5-{[4-(trifluoromethyl)-pyrimidin-2-yl]amino}phenyl)-1H-pyrazol-1-yl]propan-2-ol], the IC50 is 0.1 to 1 µM.
Same read-out and setting: then `Cc1cc(Nc2nccc(C(F)(F)F)n2)cc(-c2cnn(CC(C)(C)O)c2)c1` [Example 5.12, 2-methyl-1-[4-(3-methyl-5-{[4-(trifluorometh-yl)pyrimidin-2-yl]amino}-phenyl)-1H-pyrazol-1-yl]propan-2-ol], with at most 0.1 µM.
The same measure, in the same setting: for `Cc1cc(Nc2nccc(C(F)(F)F)n2)cc(-c2cnn(C[C@@H](O)C(=O)O)c2)c1` [Example 5.16, (2R)-2-hydroxy-3-[4-(3-methyl-5-{[4-(trifluoromethyl)-pyrimidin-2-yl]amino}phenyl)-1H-pyrazol-1-yl]propanoic acid] the value was at most 0.1 µM; for `Cc1cc(Nc2nccc(C(F)(F)F)n2)cc(-c2cnn(C[C@H](O)C(=O)O)c2)c1` [Example 5.17, (2S)-2-hydroxy-3-[4-(3-methyl-5-{[4-(trifluorometh-yl)pyrimidin-2-yl]amino}-phenyl)-1H-pyrazol-1-yl]propanoic acid], at most 0.1 µM; for `Cc1cc(Nc2nccc(C(F)F)n2)cc(-c2cnn(CC(O)C(N)=O)c2)c1` (centres unmarked) [Example 5.18, 3-[4-(3-{[4-(difluoromethyl)pyrimidin-2-yl]amino}-5-methylphenyl)-1H-pyrazol-1-yl]-2-hydroxypropanamide], at most 0.1 µM.
On the same count and under the same terms, for `Cc1cc(Nc2nccc(C(F)F)n2)cc(-c2cnn(CC(O)CF)c2)c1` (centres unmarked) [Example 5.19, 1-[4-(3-{[4-(difluoromethyl)pyrimidin-2-yl]amino}-5-methylphenyl)-1H-pyrazol-1-yl]-3-fluoropropan-2-ol] the value was at most 0.1 µM; for `CCOC(=O)C(O)Cn1cc(-c2cc(C)cc(Nc3nccc(C(F)F)n3)c2)cn1` (centres unmarked) [Example 5.20, ethyl 3-[4-(3-{[4-(difluoromethyl)pyrimidin-2-yl]amino}-5-methylphenyl)-1H-pyrazol-1-yl]-2-hydroxypropanoate], at most 0.1 µM; for `Cc1cc(Nc2nccc(C(F)F)n2)cc(-c2cnn(CC(O)CNC(=O)OC(C)(C)C)c2)c1` (centres unmarked) [Example 5.21, tert-butyl {3-[4-(3-{[4-(difluoromethyl)pyrimidin-2-yl]amino}-5-methylphenyl)-1H-pyrazol-1-yl]-2-hydroxypropyl}carbamate], at most 0.1 µM.
